Read-outs that look alike come from different tables or passages of the source.
Key:
h-5-HT6 receptor = molecular target: T1, h-5-HT6 receptor (Homo sapiens, UniProt P50406); experiment: Human 5-HT6 receptor radioligand binding assay (HEK293 membranes, [3H]-LSD)
T1 construct: expressed in transfected cells; host or cells: HEK293 cells (membranes)
Method: (v) Human 5-HT6 Receptor Radioligand Binding Assay
Preparation of Membranes by Ultrasonic Treatment and Differential Centrifugation
Cells from stable clonal cell lines expressing the corresponding receptor (5-HT6) were washed with PBS (without Ca^++, Mg^++) and harvested in PBS with 0.02% EDTA. The cells were collected by centrifugation at 500 g for 10 minutes at 4° C., washed with PBS and centrifuged (500 g, 10 minutes at 4° C.). The pellets were stored at −80° C. until use. For membrane preparation, the thawed cell pellet was resuspended in ice-cold sucrose buffer (0.25 M sucrose, 10 mM HEPES (pH 7.4), 1 mM phenylmethylsulfonyl fluoride (PMSF) in DMSO, 5 μg/ml Pepstatin-A, 3 mM EDTA, 0.025% Bacitracin) and homogenized with a Branson Sonifier W-250 (Settings: Timer 4; Output Control 3; Duty Cycle constant; 2 to 3 cycles). Cell disruption was checked with the aid of a microscope. Remaining unbroken cells were pelleted at 1,000 g for 10 minutes at 4° C. The sucrose buffer supernatant was then centrifuged at 60,000 g for 1 hour at 4° C. (Beckman Ultracentrifuge XL 80). The pellet was resuspended in 30 mL of ice-cold Tris buffer (20 mM TRIS (pH 7.4), 5 μg/mL Pepstatin A, 0.1 mM PMSF, 3 mM EDTA) by pipetting through a 10 mL serological pipette and centrifuged for 1 hour at 4° C. at 60,000 g. A final resuspension was performed in a small volume of ice-cold Tris buffer (see above) by pressing through a serological pipette followed by ultrasonic treatment with a Branson Sonifier W-250 (Settings: Timer 1; Output Control 3; Duty Cycle constant; 1 cycle). Protein concentration was determined (BCA-Kit; Pierce) and aliquots stored at −80° C. or in liquid nitrogen for long-term storage.
Receptor Binding Experiments
All receptor binding experiments were carried out in the corresponding assay buffer in a total volume of 200 μL in the presence of various concentrations of test compound (10^−5 M to 10^−9 M, tenfold serial dilution, duplicate determinations). The assays were terminated by filtration on polyethylenimine (PEI 0.1% or 0.3%) presoaked Packard Unifilter Plates (GF/C or GF/B) with a Tomtec MachIII U 96 well-plate harvester. After the plates had been dried for 2 hours at 55° C. in a drying chamber scintillation cocktail (BetaPlate Scint; PerkinElmer) was added. Radioactivity was measured in a Microbeta Trilux two hours after the addition of the scintillation mixture.
5-HT6 Receptor Binding Assay
HEK293 cells stably expressing the h-5-HT6 receptor (NCBI Reference Sequence XM 001435) were cultured in RPMI1640 medium supplemented with 25 mM HEPES, 10% fetal calf serum and 1-2 mM glutamine. The membrane preparation was performed as described above. […] On the day of the assay, the membranes were thawed, diluted in assay buffer (50 mM Tris-HCl, 5 mM CaCl2, 0.1% ascorbic acid, 10 μM pargyline, pH 7.4) to a concentration of 8 μg protein/assay and homogenized by gentle vortexing. […] Non-specific binding was defined with 1 μM methiothepin. The binding reaction was carried out for 3.5 hours at room temperature. During the incubation, the plates were shaken on a plate shaker at 100 rpm and terminated by filtration on Packard Unifilter GF/C (0.1% PEI) plates, followed by 2 wash cycles with ice-cold 50 mM Tris-HCl, 5 mM CaCl2.
Data derived from liquid scintillation counting were analyzed by iterative non-linear regression analysis with the use of the Statistical Analysis System (SAS): a program similar to “LIGAND” as described by Munson and Rodbard (Anal. Biochem. 1980, 107, 220-239). Fitting was performed according to formulae described by Feldman (Anal. Biochem. 1972, 48, 317-338). IC50 and Ki values were expressed as geometrical mean.

5HT2C receptors [1] = molecular target: T2, 5HT2C receptors (Homo sapiens, UniProt P28335); experiment: Human 5-HT2C functional high throughput screening assay in CHO-K1 cells (calcium flux); type: cell-based; design: expressed in transfected cells; host or cells: CHO-K1 cells
T2 sequence (P28335 33-458): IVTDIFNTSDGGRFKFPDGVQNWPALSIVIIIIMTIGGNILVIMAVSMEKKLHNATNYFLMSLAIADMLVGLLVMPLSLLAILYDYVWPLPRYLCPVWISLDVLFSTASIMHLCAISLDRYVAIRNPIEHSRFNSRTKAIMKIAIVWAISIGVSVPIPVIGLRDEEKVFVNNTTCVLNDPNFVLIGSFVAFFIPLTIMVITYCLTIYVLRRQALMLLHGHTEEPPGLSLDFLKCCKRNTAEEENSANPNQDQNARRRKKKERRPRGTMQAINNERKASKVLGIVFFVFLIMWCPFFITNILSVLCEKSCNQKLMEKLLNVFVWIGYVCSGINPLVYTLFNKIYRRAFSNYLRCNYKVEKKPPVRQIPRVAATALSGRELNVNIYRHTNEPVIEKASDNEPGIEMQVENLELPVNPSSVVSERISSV
Method in brief: (§1)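 Calcium flux in CHO-K1 cells overexpressing each receptor, using Ca4 dye with probenecid and FLIPR detection. Top concentration was 10 μM, diluted 1:10 across 6 points, and efficacy was scaled to serotonin.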

5HT2B receptors = molecular target: T3, 5HT2B receptors (Homo sapiens, UniProt P41595); experiment: Human 5-HT2B functional high throughput screening assay in CHO-K1 cells (calcium flux); type: cell-based
T3 construct: expressed in transfected cells; host or cells: CHO-K1 cells
T3 sequence (P41595 whole entry): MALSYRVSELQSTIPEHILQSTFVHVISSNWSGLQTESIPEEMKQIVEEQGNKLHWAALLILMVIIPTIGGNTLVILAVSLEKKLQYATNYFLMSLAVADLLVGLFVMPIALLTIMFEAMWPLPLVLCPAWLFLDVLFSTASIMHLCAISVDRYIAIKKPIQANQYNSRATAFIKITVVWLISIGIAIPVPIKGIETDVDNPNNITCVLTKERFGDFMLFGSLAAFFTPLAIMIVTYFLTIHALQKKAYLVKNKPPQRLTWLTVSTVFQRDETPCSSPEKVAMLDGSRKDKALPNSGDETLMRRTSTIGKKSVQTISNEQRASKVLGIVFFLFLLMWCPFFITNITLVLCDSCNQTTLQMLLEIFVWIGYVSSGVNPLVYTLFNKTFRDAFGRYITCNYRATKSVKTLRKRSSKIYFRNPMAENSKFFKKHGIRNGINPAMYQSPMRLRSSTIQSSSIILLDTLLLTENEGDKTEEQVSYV
Method in brief: as §1

[2] = molecular target: T4, human serotonin 5-HT2c receptor (Homo sapiens, UniProt P28335); experiment: Human 5-HT2C receptor radioligand binding assay (agonist site, [125I]DOI); conditions: 5-HT2c agonist site; transfected CHO cell membranes; 0.2 nM [125I](±)DOI
T4 construct: expressed in transfected cells; host or cells: CHO cells (membrane homogenates)
T4 sequence (P28335 33-458): T2 sequence (P28335 33-458)
Method: (i) Human 5-HT2C Receptor Radioligand Binding Assay
Affinity of compounds for the agonist site of the […], receptor in transfected CHO cells was determined in a radioligand binding assay essentially as described by Bryant, H. U., et al., Life Sciences (1996) 59(15), 1259-1268.

5HT2C receptors [3] = molecular target: T2, 5HT2C receptors; experiment: Human 5-HT2C functional assay in 1321N1 cells (intracellular calcium, FLIPR); type: cell-based; design: expressed in transfected cells; host or cells: 1321N1 cells; conditions: 5-HT2c agonist activity, maximum calcium response
Method: (ii) Human 5-HT2C Functional Assay in 1321N1 Cells
Functional activity was determined by testing the effect of the compounds on intracellular calcium levels in 1321N1 cells stably transfected with the human 5-HT2C receptor. Cells were seeded into 96-well plates at 50,000 cells/well and grown overnight in tissue culture medium (DMEM with Glutamax I (Invitrogen), containing 10% dFCS, 50 μg/mL Gentamicin, 400 μg/mL Geneticin) at 37° C. and 7% CO2. Growth medium was replaced by medium without dFCS for overnight incubation. Cells were loaded with a fluorescent calcium-sensitive dye in the presence of 1% probenicid according to the manufacturer's protocol (Fluo4 AM, Molecular Devices). Serial compound dilutions (final concentrations 10^−10 to 10^−5 M) were added to the cells either alone or in the presence of serotonin (10^−9 M) and the maximum calcium response was determined using a FLIPR instrument (Molecular Devices). Concentration-response curves were fitted using a four-parameter logistic equation (GraphPad Prism). The concentration at which the compound exerts half its maximal effect is named the ‘effective concentration 50’ or ‘EC50’ and is listed in Table 2.

[4] = HEK293 membranes expressing h-5-HT6 receptor, 1 nM [3H]-LSD, geometrical mean, read-out: Ki (5-HT6 Agonist Site Radioligand Binding)

T1 sequence (P50406 whole entry): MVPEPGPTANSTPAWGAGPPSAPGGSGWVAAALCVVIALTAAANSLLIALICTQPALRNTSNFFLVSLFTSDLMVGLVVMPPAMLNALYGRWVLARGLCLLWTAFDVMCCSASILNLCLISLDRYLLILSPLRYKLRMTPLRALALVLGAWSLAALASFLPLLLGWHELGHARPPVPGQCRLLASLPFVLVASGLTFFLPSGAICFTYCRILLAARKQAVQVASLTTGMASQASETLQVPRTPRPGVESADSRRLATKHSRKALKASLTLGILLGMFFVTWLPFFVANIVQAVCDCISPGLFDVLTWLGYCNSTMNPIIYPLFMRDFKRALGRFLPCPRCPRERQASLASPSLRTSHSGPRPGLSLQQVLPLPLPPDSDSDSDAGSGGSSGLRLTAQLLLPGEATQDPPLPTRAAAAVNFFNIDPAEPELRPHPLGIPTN

Row | Compound | Ki (h-5-HT6 receptor; [4]) [nM] | EC50 (5HT2C receptors [3]) [nM] | further results
1 | CN1C[C@H]2CNC(=O)c3cc(OCc4cccc(F)c4)ccc3[C@@H]2C1 (relative stereo) [Example 217, Trans-8-(3-fluorobenzyloxy)-2-methyl-1,2,3,3a,4,5-hexahydrobenzo[c]pyrrolo[3,4-e]azepin-6(10bH)-one] | 3180 | – | EC50 (5HT2C receptors [1]; 5-HT2C agonist activity, CHO-K1 cells, calcium flux, read-out: EC50): 2 nM; Emax (5HT2C receptors [1]; CHO-K1, 5-HT2C, maximum functional response as percentage relative to the effect of serotonin, read-out: Emax): 120%; EC50 (5HT2B receptors; 5-HT2B agonist activity, CHO-K1 cells, calcium flux, read-out: EC50): > 10000 nM; Emax (5HT2B receptors; 5-HT2B, maximum functional response as percentage relative to the effect of serotonin): inactive
2 | Cc1ccc(C)c(S(=O)(=O)N2Cc3ccccc3[C@@H]3CN(Cc4ccccc4)C[C@H]3C2)c1 (relative stereo) [Example 17, Trans-2-benzyl-5-(2,5-dimethylphenylsulfonyl)-1,2,3,3a,4,5,6,10b-octahydrobenzo[c]pyrrolo[3,4-e]azepine] | 55.1 | – | –
3 | COc1cccc(S(=O)(=O)N2Cc3ccccc3[C@@H]3CN(Cc4ccccc4)C[C@H]3C2)c1 (relative stereo) [Example 18, Trans-2-benzyl-5-(3-methoxyphenylsulfonyl)-1,2,3,3a,4,5,6,10b-octahydrobenzo[c]pyrrolo[3,4-e]azepine] | 23.1 | – | –
4 | CN1C[C@H]2CN(S(=O)(=O)c3ccccc3)Cc3ccccc3[C@H]2C1 (relative stereo) [Example 72, Cis-2-methyl-5-(phenylsulfonyl)-1,2,3,3a,4,5,6,10b-octahydrobenzo[c]pyrrolo[3,4-e]azepine] | – | 51.9 | Ki (h-5-HT6 receptor): 71.7 nM; Ki [2]: 65 nM
5 | COc1ccc(OC)c(S(=O)(=O)N2Cc3ccccc3[C@@H]3CN(Cc4ccccc4)C[C@H]3C2)c1 (relative stereo) [Example 15, Trans-2-benzyl-5-(2,5-dimethoxyphenylsulfonyl)-1,2,3,3a,4,5,6,10b-octahydrobenzo[c]pyrrolo[3,4-e]azepine] | 490 | – | –
6 | O=S(=O)(c1ccccc1Br)N1Cc2ccccc2[C@@H]2CN(Cc3ccccc3)C[C@H]2C1 (relative stereo) [Example 11, Trans-2-benzyl-5-(2-bromophenylsulfonyl)-1,2,3,3a,4,5,6,10b-octahydrobenzo[c]pyrrolo[3,4-e]azepine] | 40.3 | – | –
7 | CN1C[C@H]2CN(S(=O)(=O)c3ccccc3)Cc3ccccc3[C@@H]2C1 (relative stereo) [Example 71, Trans-2-methyl-5-(phenylsulfonyl)-1,2,3,3a,4,5,6,10b-octahydrobenzo[e]pyrrolo[3,4-e]azepine] | – | 14.2 | Ki (h-5-HT6 receptor): 4.42 nM; Ki [2]: 15 nM
8 | O=S(=O)(c1cc(Cl)ccc1Cl)N1Cc2ccccc2[C@@H]2CN(Cc3ccccc3)C[C@H]2C1 (relative stereo) [Example 10, Trans-2-benzyl-5-(2,5-dichlorophenylsulfonyl)-1,2,3,3a,4,5,6,10b-octahydrobenzo[c]pyrrolo[3,4-e]azepine] | 174 | – | –
9 | Trans-2-benzyl-5-(2-dichlorophenylsulfonyl)-1,2,3,3a,4,5,6,10b-octahydrobenzo[c]pyrrolo[3,4-e]azepine [Example 19] | 14.1 | – | –
10 | O=S(=O)(c1cccc2ccccc12)N1Cc2ccccc2[C@@H]2CN(Cc3ccccc3)C[C@H]2C1 (relative stereo) [Example 13, Trans-2-benzyl-5-(naphthalen-1-ylsulfonyl)-1,2,3,3a,4,5,6,10b-octahydrobenzo[c]pyrrolo[3,4-e]azepine] | 37.5 | – | –
11 | O=S(=O)(c1cccc(F)c1)N1Cc2ccccc2[C@@H]2CNC[C@H]2C1 (relative stereo) [Example 54, Trans-5-(3-fluorophenylsulfonyl)-1,2,3,3a,4,5,6,10b-octahyrobenzo[c]pyrrolo[3,4-e]azepine] | – | 13.2 | Ki (h-5-HT6 receptor): 121 nM; Ki [2]: 9.1 nM
12 | O=S(=O)(c1cccc(Cl)c1Cl)N1Cc2ccccc2[C@@H]2CN(Cc3ccccc3)C[C@H]2C1 (relative stereo) [Example 9, Trans-2-benzyl-5-(2,3-dichlorophenylsulfonyl)-1,2,3,3a,4,5,6,10b-octahydrobenzo[c]pyrrolo[3,4-e]azepine] | 17.1 | > 10000 | –
13 | N#Cc1ccccc1S(=O)(=O)N1Cc2ccccc2[C@@H]2CN(Cc3ccccc3)C[C@H]2C1 (relative stereo) [Example 21, Trans-2-benzyl-5-(2-cyanophenylsulfonyl)-1,2,3,3a,4,5,6,10b-octahydrobenzo[c]pyrrolo[3,4-e]azepine] | 36.1 | – | –

Source: patent publication US8846951B2 (AbbVie Inc., priority 2009, dated 2014)
